Results reported in US12622892B2, “Methods for treating endometriosis” (THE TEXAS A&M UNIVERSITY SYSTEM, priority 2020, dated 2026).

Assays:
NR4A1 [1] = target: T1, NR4A1 (Homo sapiens, UniProt P22736); assay: Luciferase assay, NR4A1/NBRE-luc in ESECT-7 cells; format: cell-based; settings: ESECT-7 cells transfected with NR4A1/NBRE-luc; 18 hr treatment; FIG. 2A
T1 construct: expressed in transfected cells; host or cells: ESECT-7 patient-derived endometriotic cells
Experimental: (§1) Luciferase assay: ESECT-7 and ESECT-40 cells were plated on 12-well plates in DMEM/F12 supplemented with 2.5% charcoal-stripped FBS. After overnight attachment and growth, various amounts of DNA [i.e., UASx5-Luc (500 ng), GAL4-NR4A1 (50 ng), NBREx3-Luc (800 ng), NurREx3-Luc (800 ng) and Flag-NR4A1 (80 ng)] were co-transfected into each well using Lipofectamine 2000 reagent (Invitrogen, Carlsbad, CA) according to the manufacturer's protocol. After 6 hr of transfection, cells were treated with plating medium (as above) containing either solvent (DMSO) or indicated concentrations of the compound for 18 hr. Cells were then lysed and cell extracts were used for chemiluminescence quantification of luciferase activity. Luciferase activity values were normalized against corresponding protein concentration values determined by Bradford assay. Both GAL4- and Flag-NR4A1 constructs contain full-length NR4A1 coding sequence and all the plasmids used in this study were previously described.

GAL4-NR4A1 = target: T2, GAL4-NR4A1 (Homo sapiens, UniProt P22736); assay: Luciferase assay, GAL4-NR4A1 chimera/UAS-luc in ESECT-7 cells; format: cell-based; settings: ESECT-7 cells transfected with GAL4-NR4A1 chimera/UAS-luc; 18 hr treatment; FIG. 2A
T2 construct: GAL4 (fusion partner); expressed in transfected cells; host or cells: ESECT-7 patient-derived endometriotic cells
T2 sequence (P22736 with tags, fused parts or gaps): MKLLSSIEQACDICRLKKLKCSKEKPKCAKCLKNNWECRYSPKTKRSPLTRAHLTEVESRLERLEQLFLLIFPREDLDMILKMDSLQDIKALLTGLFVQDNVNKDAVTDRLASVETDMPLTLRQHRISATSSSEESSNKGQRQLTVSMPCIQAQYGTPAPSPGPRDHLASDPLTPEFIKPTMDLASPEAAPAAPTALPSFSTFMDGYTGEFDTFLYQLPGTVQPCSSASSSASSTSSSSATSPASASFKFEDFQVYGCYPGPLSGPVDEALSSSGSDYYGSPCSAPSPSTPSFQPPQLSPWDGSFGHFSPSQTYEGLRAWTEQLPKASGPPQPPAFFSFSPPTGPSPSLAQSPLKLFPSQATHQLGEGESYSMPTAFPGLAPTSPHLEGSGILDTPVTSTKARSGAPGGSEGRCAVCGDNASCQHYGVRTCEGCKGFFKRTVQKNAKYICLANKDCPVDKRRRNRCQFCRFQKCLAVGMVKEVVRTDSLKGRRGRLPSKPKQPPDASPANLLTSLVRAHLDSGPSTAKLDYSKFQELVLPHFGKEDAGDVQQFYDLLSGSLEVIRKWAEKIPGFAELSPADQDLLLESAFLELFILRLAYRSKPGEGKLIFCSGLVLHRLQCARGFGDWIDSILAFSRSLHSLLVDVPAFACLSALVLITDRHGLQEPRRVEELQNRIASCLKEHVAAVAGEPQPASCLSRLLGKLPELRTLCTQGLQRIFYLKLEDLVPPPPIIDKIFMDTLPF
Experimental: as §1

NEM cells [2] = assay: Cell growth, normal endometrial NEM cells; format: cell-based, human; settings: 24 hr; 15-25 μM DIM-C-pPhOH, 5-10 μM DIM-C-pPhOH-3-Cl-5-OCH3; vs DMSO control; FIG. 4A
Experimental: (§2) Primary human endometriotic stromal cells from endometriosis patients: Ovarian endometrioma were isolated from endometriosis patients in the proliferative phase following the IRB-approved protocol. Isolated ectopic lesions were digested with collagenase type 3 (300 μg/ml) and DNaseI (40 μg/ml) for 90 min at 37° C., and then tissues were filtered through 150, 100, and 40 μm sieves to isolate endometrial stromal cells. The collected endometrial stromal cells were cultured in DMEM/F12 with 10% FBS plus 1× antibiotic/antimycotic solution and then validated by flow cytometry with a CD90 antibody (a mesenchymal marker). Henceforth, we refer to the stromal cells as ectopic endometrium isolated ovarian endometrioma (ESECT). As the control, primary normal endometrial stromal cells isolated from the biopsy of the eutopic endometrium of normal women (NEM) in the proliferative phase. All cells were incubated at 37° C. in CO2 incubator in an atmosphere of humidified 5% CO2 and 95% air.
(§3) Cell proliferation assay: Patient-derived endometriotic cells ESECT-7 and ESECT-40 were seeded into a 96-well plate, and the cells were then treated for 24 hr with either DMSO or different concentrations of DIM-C-pPhOH and DIM-C-pPhOH-3-Cl-5-OCH3. […] Dimethyl sulfoxide (DMSO) was added and incubated at […] for 10 min, and absorbance was measured at 570 nm.

NR4A1 [3] = target: T3, NR4A1 (Mus musculus, UniProt P12813); settings: C2C12 muscle cells; cited from earlier work
T3 construct: endogenous in cells; host or cells: C2C12 muscle cells
T3 sequence (P12813 whole entry): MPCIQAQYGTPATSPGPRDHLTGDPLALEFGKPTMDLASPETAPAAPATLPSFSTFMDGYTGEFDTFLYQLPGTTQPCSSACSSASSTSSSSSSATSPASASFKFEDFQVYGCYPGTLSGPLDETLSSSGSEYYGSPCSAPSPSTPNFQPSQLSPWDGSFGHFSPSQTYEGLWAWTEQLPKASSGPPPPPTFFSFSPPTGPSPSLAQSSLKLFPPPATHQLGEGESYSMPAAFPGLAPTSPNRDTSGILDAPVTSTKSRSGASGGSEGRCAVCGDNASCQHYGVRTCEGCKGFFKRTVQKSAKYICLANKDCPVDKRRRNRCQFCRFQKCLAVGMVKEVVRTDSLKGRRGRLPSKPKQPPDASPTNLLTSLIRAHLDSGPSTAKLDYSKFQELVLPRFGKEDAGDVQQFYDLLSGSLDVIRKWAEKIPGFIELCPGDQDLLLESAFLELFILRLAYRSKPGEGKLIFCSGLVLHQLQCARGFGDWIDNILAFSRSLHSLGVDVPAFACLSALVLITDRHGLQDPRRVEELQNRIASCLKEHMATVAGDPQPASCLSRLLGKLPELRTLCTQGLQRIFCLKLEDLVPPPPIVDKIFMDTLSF

ESECT-7 cells [4] = assay: α-SMA immunofluorescence, ESECT-7; format: cell-based, human; settings: vs control, FIG. 5A
Experimental: Immunofluorescence: ESECT-7 and ESECT-40 cells were seeded in Nunc chambered cover-glass followed by various drug treatments. The cells were fixed with 4% paraformaldehyde in PBS for 20 minutes at 37° C. Cells were then blocked and incubated overnight with primary α-SMA antibody in the buffer (5% bovine serum albumin in PBS) at 4° C., followed by incubation with Alexa Fluor conjugated secondary antibody at a dilution of 1:250 for 2 hours at room temperature. Finally, cells were observed using a Zeiss confocal fluorescence microscope.

IHEECs = assay: Expression of fibrosis markers in IHEECs; format: cell-based, human; settings: 24 hours, vs control, FIG. 6B
ESECT-7 cells [5] = assay: Annexin V staining, ESECT-7; format: cell-based, human; settings: 10 μM DIM-C-pPhOH-3-Cl-5-OCH3, 25 μM DIM-C-pPhOH, FIG. 3A
Experimental: (§4) Annexin V staining: ESECT-7 and ESECT-40 cells were seeded in Nunc chambered cover glass followed by various drug treatments. The cells were then washed with ice-cold PBS, and 5 μL Alexa Fluor® 488 Annexin V with 100 μg/mL PI (as per the manufacturer's instructions) were added to the cells and incubated for 15 min, and the cells were observed using a Zeiss confocal fluorescence microscope.

ESECT-40 cells [6] = assay: Cell proliferation assay (MTT), ESECT-40; format: cell-based, human; settings: 24 hr; 5-10 μM DIM-C-pPhOH-3-Cl-5-OCH3, 15-25 μM DIM-C-pPhOH; FIG. 2C
Experimental: as §2, §3

ESECT-40 cells [7] = assay: Annexin V staining, ESECT-40; format: cell-based, human; settings: 10 μM DIM-C-pPhOH-3-Cl-5-OCH3, 25 μM DIM-C-pPhOH, FIG. 3B
Experimental: as §4

ESECT-7 cells [8] = assay: Quantitative real-time PCR of fibrosis markers, ESECT-7; format: cell-based, human; settings: 24 hours, 20-25 μM DIM-C-pPhOH, 5-10 μM DIM-C-pPhOH-3-Cl-5-OCH3, vs DMSO control, FIG. 5C
Experimental: Quantitative real-time PCR: Total RNA was isolated from cultured cells according to the manufacturer's instructions (Zymo Research, Irvine, CA). The concentration and purity of the RNA samples were determined using a nanodrop spectrophotometer. Total RNA was reverse transcribed using iTaq Universal SYBR Green One-Step Kit (Thermo Fisher Scientific, Grand Island, NY) using the manufacturer's protocol with the CFX384 real-time PCR System (Bio-Rad). The comparative cycle threshold method was used for relative quantitation of samples. Values for each gene were normalized to expression levels of TATA-binding protein. The sequences of the primers used for real-time PCR included the following: α-SMA, 5′-GGCCGAGATCTCACTGACTAC-3′ (sense, SEQ ID NO. 13) and 5′-TTC ATG GAT GCC AGC AGA-3′ (antisense, SEQ ID NO. 14); COL1A1, 5′-CAG CCG CTT CAC CTA CAG C-3′ (sense, SEQ ID NO. 15) and 5′-TTTTGTATTCAATCAGTGTCTTGCC-3′ (antisense, SEQ ID NO. 16); CTGF, 5′-TTGGCCCAGACCCAACTATG-3′(sense, SEQ ID NO. 17) and 5′-CAGGAGGCGTTGTCATTGGT-3′ (antisense, SEQ ID NO. 18); FN, 5′-GGG AGC CTC GAA GAG C-3′ (sense 19) and 5′-AACAAGTACAAACCAACGCA-3′ (antisense, SEQ ID NO. 20) and TATA-binding protein, 5′-GATCAGAACAACAGCCTGCC-3′ (sense, SEQ ID NO. 21) and 5′-TTCTGAATAGGCTGTGGGGT-3′ […].

Ishikawa cells = assay: Expression of fibrosis markers in Ishikawa cells; format: cell-based; settings: 24 hours, FIG. 6D
NEM cells [9] = assay: Annexin V staining, NEM cells; format: cell-based, human; settings: 25 μM DIM-C-pPhOH, 10 μM DIM-C-pPhOH-3-Cl-5-OCH3, vs DMSO control, FIG. 4C
NEM cells [10] = assay: Western blotting of growth promoting and proapoptotic gene products, NEM cells; format: cell-based, human
ESECT-7 cells [11] = assay: Cell proliferation assay (MTT), ESECT-7; format: cell-based, human; settings: 24 hr; 5-10 μM DIM-C-pPhOH-3-Cl-5-OCH3, 15-25 μM DIM-C-pPhOH; FIG. 2C
Experimental: as §2, §3

NESC and EESC cells = settings: Zeng et al. 2018; cited from earlier work

T1 sequence (P22736 whole entry, species assumed): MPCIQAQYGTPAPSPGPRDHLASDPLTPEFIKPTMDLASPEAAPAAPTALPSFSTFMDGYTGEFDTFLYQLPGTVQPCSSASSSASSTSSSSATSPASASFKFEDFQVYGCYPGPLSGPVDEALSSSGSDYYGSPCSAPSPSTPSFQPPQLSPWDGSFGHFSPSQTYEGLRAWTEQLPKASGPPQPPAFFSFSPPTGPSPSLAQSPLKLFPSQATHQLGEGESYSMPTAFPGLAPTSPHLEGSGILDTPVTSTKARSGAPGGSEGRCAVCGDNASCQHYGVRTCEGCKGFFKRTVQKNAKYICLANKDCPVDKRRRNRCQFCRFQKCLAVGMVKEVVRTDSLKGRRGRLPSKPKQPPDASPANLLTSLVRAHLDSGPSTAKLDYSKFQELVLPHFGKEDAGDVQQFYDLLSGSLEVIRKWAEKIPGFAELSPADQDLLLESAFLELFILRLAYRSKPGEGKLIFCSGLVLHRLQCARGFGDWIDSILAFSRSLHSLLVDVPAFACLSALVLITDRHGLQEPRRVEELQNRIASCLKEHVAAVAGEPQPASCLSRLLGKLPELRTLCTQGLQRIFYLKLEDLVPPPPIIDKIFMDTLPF

Oc1c(Br)cc(C(c2c[nH]c3ccccc23)c2c[nH]c3ccccc23)cc1Br [4-OH-3,5-Br2]
intrinsic transcriptional activity of NR4A1 (NR4A1 [1]): inhibited the intrinsic transcriptional activity
intrinsic transcriptional activity of GAL4-NR4A1 (GAL4-NR4A1): inhibited the intrinsic transcriptional activity

Oc1ccc(C(c2c[nH]c3ccccc23)c2c[nH]c3ccccc23)cc1Cl [4-OH-3-Cl, 1,1-bis(3′-indolyl)-1-(3-chloro-4-hydroxyphenyl)methane]
intrinsic transcriptional activity of NR4A1 (NR4A1 [1]): inhibited the intrinsic transcriptional activity
intrinsic transcriptional activity of GAL4-NR4A1 (GAL4-NR4A1): inhibited the intrinsic transcriptional activity

Oc1ccc(C(c2c[nH]c3ccccc23)c2c[nH]c3ccccc23)cc1 [DIM-C-pPhOH, 1,1-bis(3′-indolyl)-1-(p-hydroxyphenyl)methane]
growth of normal endometrial NEM cells (NEM cells [2]): did not suppress the growth
NR4A1 agonist activity, induction of genes involved in glucose uptake (NR4A1 [3]): worked as NR4A1 agonists
intrinsic transcriptional activity of NR4A1 (NR4A1 [1]): inhibited the intrinsic transcriptional activity
expression of SMA levels (ESECT-7 cells [4]): decreased expression of SMA levels
expression of fibrosis markers (α-SMA, COL1A1, FN, CTGF) (IHEECs): decreased expression of fibrosis markers
Annexin V staining (apoptosis) (ESECT-7 cells [5]): induced apoptosis
growth of ESECT-40 cells (ESECT-40 cells [6]): inhibited cell growth
intrinsic transcriptional activity of GAL4-NR4A1 (GAL4-NR4A1): inhibited the intrinsic transcriptional activity
Annexin V staining (apoptosis) (ESECT-40 cells [7]): induced apoptosis
mRNA levels of fibrosis markers (FN, Col1A1, CTGF) (ESECT-7 cells [8]): decreased mRNA levels
expression of fibrosis markers (α-SMA, COL1A1, FN, CTGF) (Ishikawa cells): decreased expression of fibrosis markers
Annexin V staining (NEM cells [9]): did not enhance
levels of the cleaved form of PARP and Bax (NEM cells [10]; 25 μM DIM-C-pPhOH, 10 μM DIM-C-pPhOH-3-Cl-5-OCH3, vs DMSO control, FIG. 4D): did not enhance
cMyc and EGFR expression (NEM cells [10]; 15-25 μM DIM-C-pPhOH, 5-10 μM DIM-C-pPhOH-3-Cl-5-OCH3, vs DMSO control, FIG. 4B): did not decrease
growth of ESECT-7 cells (ESECT-7 cells [11]): inhibited cell growth

CCCCCCCC(=O)c1c(O)cc(O)cc1CC(=O)OCC [cytosporone β]
TGFβ-induced fibrosis (NESC and EESC cells): inhibited TGFβ-induced fibrosis
